Experiment: xn = mol fraction of the nth substance listed
Settings: 100.9 kPa, Liquid; for speed of sound: Single path-length method; for mass density: Vibrating tube method; for viscosity: Concentric cylinders viscometry

CCCC(=O)[O-].CC[NH2+]CC [diethylammonium butanoate] + O
Settings | mass density [kg/m3] | speed of sound [m/s] | viscosity [mPa·s]
308.15 K, x1 = 0.0123 | 996.9 | – | –
308.15 K, x1 = 0.0453 | 1000.03 | – | –
308.15 K, x1 = 0.1005 | 994.12 | – | –
308.15 K, x1 = 0.1439 | 981.01 | – | –
308.15 K, x1 = 0.2067 | 973.03 | 1659.9 | –
308.15 K, x1 = 0.3096 | 957.65 | 1581.6 | –
308.15 K, x1 = 0.4951 | 938.09 | 1494 | –
308.15 K, x1 = 0.6812 | 927.6 | 1435.5 | –
308.15 K, x1 = 0.7974 | 912 | 1424.2 | –
308.15 K, x1 = 0.974 | 907.1 | 1382.6 | –
310.65 K, x1 = 0.0122 | – | – | 1.06
310.65 K, x1 = 0.0451 | – | – | 2.43
310.65 K, x1 = 0.0999 | – | – | 5.73
310.65 K, x1 = 0.143 | – | – | 8.92
310.65 K, x1 = 0.2051 | – | – | 14.41
310.65 K, x1 = 0.3064 | – | – | 24.13
310.65 K, x1 = 0.4879 | – | – | 34.17
310.65 K, x1 = 0.6684 | – | – | 35.33
310.65 K, x1 = 0.974 | – | – | 30.78
313.15 K, x1 = 0.0122 | – | – | 1.01
313.15 K, x1 = 0.0123 | 995 | 1615.3 | –
313.15 K, x1 = 0.0451 | – | – | 2.26
313.15 K, x1 = 0.0453 | 997.13 | 1743.8 | –
313.15 K, x1 = 0.0999 | – | – | 5.25
313.15 K, x1 = 0.1005 | 991.05 | 1736.7 | –
313.15 K, x1 = 0.143 | – | – | 8.13
313.15 K, x1 = 0.1439 | 977.64 | 1702.2 | –
313.15 K, x1 = 0.2051 | – | – | 13.03
313.15 K, x1 = 0.2067 | 969.96 | 1644.3 | –
313.15 K, x1 = 0.3064 | – | – | 21.59
313.15 K, x1 = 0.3096 | 954.6 | 1565.2 | –
313.15 K, x1 = 0.4879 | – | – | 30.39
313.15 K, x1 = 0.4951 | 934.18 | 1478.3 | –
313.15 K, x1 = 0.6684 | – | – | 31.48
313.15 K, x1 = 0.6812 | 925.21 | 1418.8 | –
313.15 K, x1 = 0.7974 | 908.2 | 1408.5 | –
313.15 K, x1 = 0.974 | 903.2 | 1365.2 | 27.55
315.65 K, x1 = 0.0122 | – | – | 0.96
315.65 K, x1 = 0.0451 | – | – | 2.1
315.65 K, x1 = 0.0999 | – | – | 4.82
315.65 K, x1 = 0.143 | – | – | 7.42
315.65 K, x1 = 0.2051 | – | – | 11.82
315.65 K, x1 = 0.3064 | – | – | 19.39
315.65 K, x1 = 0.4879 | – | – | 27.14
315.65 K, x1 = 0.6684 | – | – | 28.13
315.65 K, x1 = 0.974 | – | – | 24.73
318.15 K, x1 = 0.0122 | – | – | 0.92
318.15 K, x1 = 0.0123 | 992.7 | 1617.5 | –
318.15 K, x1 = 0.0451 | – | – | 1.96
318.15 K, x1 = 0.0453 | 994.15 | 1734.2 | –
318.15 K, x1 = 0.0999 | – | – | 4.45
318.15 K, x1 = 0.1005 | 987.76 | 1722.8 | –
318.15 K, x1 = 0.143 | – | – | 6.82
318.15 K, x1 = 0.1439 | 974.31 | 1687.3 | –
318.15 K, x1 = 0.2051 | – | – | 10.76
318.15 K, x1 = 0.2067 | 967.21 | 1628.7 | –
318.15 K, x1 = 0.3064 | – | – | 17.45
318.15 K, x1 = 0.3096 | 952.7 | 1548.6 | –
318.15 K, x1 = 0.4879 | – | – | 24.28
318.15 K, x1 = 0.4951 | 930.28 | 1462.4 | –
318.15 K, x1 = 0.6684 | – | – | 25.23
318.15 K, x1 = 0.6812 | 922.19 | 1401.9 | –
318.15 K, x1 = 0.7974 | 904.3 | 1393.8 | –
318.15 K, x1 = 0.974 | 899.2 | 1348.2 | 22.26
320.65 K, x1 = 0.0122 | – | – | 0.87
320.65 K, x1 = 0.0451 | – | – | 1.84
320.65 K, x1 = 0.0999 | – | – | 4.11
320.65 K, x1 = 0.143 | – | – | 6.24
320.65 K, x1 = 0.2051 | – | – | 9.82
320.65 K, x1 = 0.3064 | – | – | 15.77
320.65 K, x1 = 0.4879 | – | – | 21.77
320.65 K, x1 = 0.6684 | – | – | 22.68
320.65 K, x1 = 0.974 | – | – | 20.08
323.15 K, x1 = 0.0122 | – | – | 0.84
323.15 K, x1 = 0.0123 | 990.45 | 1618.6 | –
323.15 K, x1 = 0.0451 | – | – | 1.72
323.15 K, x1 = 0.0453 | 991.08 | 1724.2 | –
323.15 K, x1 = 0.0999 | – | – | 3.8
323.15 K, x1 = 0.1005 | 984.28 | 1708.8 | –
323.15 K, x1 = 0.143 | – | – | 5.75
323.15 K, x1 = 0.1439 | 971.05 | 1672.4 | –
323.15 K, x1 = 0.2051 | – | – | 8.98
323.15 K, x1 = 0.2067 | 964.37 | 1612.6 | –
323.15 K, x1 = 0.3064 | – | – | 14.26
323.15 K, x1 = 0.3096 | 949.4 | 1531.7 | –
323.15 K, x1 = 0.4879 | – | – | 19.64
323.15 K, x1 = 0.4951 | 926.37 | 1446.2 | –
323.15 K, x1 = 0.6684 | – | – | 20.46
323.15 K, x1 = 0.6812 | 918.45 | 1384.7 | –
323.15 K, x1 = 0.7974 | 900.35 | 1379.5 | –
323.15 K, x1 = 0.974 | 895.2 | 1343.3 | 18.14
325.65 K, x1 = 0.0122 | – | – | 0.8
325.65 K, x1 = 0.0451 | – | – | 1.62
325.65 K, x1 = 0.0999 | – | – | 3.53
325.65 K, x1 = 0.143 | – | – | 5.31
325.65 K, x1 = 0.2051 | – | – | 8.24
325.65 K, x1 = 0.3064 | – | – | 12.94
325.65 K, x1 = 0.4879 | – | – | 17.73
325.65 K, x1 = 0.6684 | – | – | 18.49
325.65 K, x1 = 0.974 | – | – | 16.45
328.15 K, x1 = 0.0122 | – | – | 0.75
328.15 K, x1 = 0.0451 | – | – | 1.52
328.15 K, x1 = 0.0999 | – | – | 3.29
328.15 K, x1 = 0.143 | – | – | 4.92
328.15 K, x1 = 0.2051 | – | – | 7.58
328.15 K, x1 = 0.3064 | – | – | 11.79
328.15 K, x1 = 0.4879 | – | – | 16.02
328.15 K, x1 = 0.6684 | – | – | 16.76
328.15 K, x1 = 0.974 | – | – | 14.94
330.65 K, x1 = 0.0122 | – | – | 0.72
330.65 K, x1 = 0.0451 | – | – | 1.44
330.65 K, x1 = 0.0999 | – | – | 3.07
330.65 K, x1 = 0.143 | – | – | 4.57
330.65 K, x1 = 0.2051 | – | – | 6.99
330.65 K, x1 = 0.3064 | – | – | 10.77
330.65 K, x1 = 0.4879 | – | – | 14.54
330.65 K, x1 = 0.6684 | – | – | 15.23
330.65 K, x1 = 0.974 | – | – | 13.61
333.15 K, x1 = 0.0122 | – | – | 0.69
333.15 K, x1 = 0.0451 | – | – | 1.36
333.15 K, x1 = 0.0999 | – | – | 2.87
333.15 K, x1 = 0.143 | – | – | 4.25
333.15 K, x1 = 0.2051 | – | – | 6.46
333.15 K, x1 = 0.3064 | – | – | 9.86
333.15 K, x1 = 0.4879 | – | – | 13.24
333.15 K, x1 = 0.6684 | – | – | 13.86
333.15 K, x1 = 0.974 | – | – | 12.38
335.65 K, x1 = 0.0122 | – | – | 0.66
335.65 K, x1 = 0.0451 | – | – | 1.29
335.65 K, x1 = 0.0999 | – | – | 2.7
335.65 K, x1 = 0.143 | – | – | 3.96
335.65 K, x1 = 0.2051 | – | – | 5.98
335.65 K, x1 = 0.3064 | – | – | 9.05
335.65 K, x1 = 0.4879 | – | – | 12.07
335.65 K, x1 = 0.6684 | – | – | 12.64
335.65 K, x1 = 0.974 | – | – | 11.33
338.15 K, x1 = 0.0122 | – | – | 0.64
338.15 K, x1 = 0.0451 | – | – | 1.22
338.15 K, x1 = 0.0999 | – | – | 2.53
338.15 K, x1 = 0.143 | – | – | 3.7
338.15 K, x1 = 0.2051 | – | – | 5.55
338.15 K, x1 = 0.3064 | – | – | 8.33
338.15 K, x1 = 0.4879 | – | – | 11.03
338.15 K, x1 = 0.6684 | – | – | 11.56
338.15 K, x1 = 0.974 | – | – | 10.37
340.65 K, x1 = 0.0122 | – | – | 0.61
340.65 K, x1 = 0.0451 | – | – | 1.16
340.65 K, x1 = 0.0999 | – | – | 2.39
340.65 K, x1 = 0.143 | – | – | 3.46
340.65 K, x1 = 0.2051 | – | – | 5.16
340.65 K, x1 = 0.3064 | – | – | 7.68
340.65 K, x1 = 0.4879 | – | – | 10.11
340.65 K, x1 = 0.6684 | – | – | 10.59
340.65 K, x1 = 0.974 | – | – | 9.48
343.15 K, x1 = 0.0122 | – | – | 0.59
343.15 K, x1 = 0.0451 | – | – | 1.1
343.15 K, x1 = 0.0999 | – | – | 2.25
343.15 K, x1 = 0.143 | – | – | 3.24
343.15 K, x1 = 0.2051 | – | – | 4.81
343.15 K, x1 = 0.3064 | – | – | 7.09
343.15 K, x1 = 0.4879 | – | – | 9.28
343.15 K, x1 = 0.6684 | – | – | 9.64
343.15 K, x1 = 0.974 | – | – | 8.7

— the NIST ThermoML archive (doi:10.1016/j.fluid.2017.12.001)
